# Read-outs that look alike come from different tables or passages of the source.
# Experiments:
# APP/PS1 mice [1] = test: Preliminary studies with sildenafil in APP/PS1 mice; format: in vivo; details: persist beyond the administration of the inhibitor
# [2] = Metabolite formation (H versus D substitution); format: in vitro ADME; details: substitution of H with D; instead of three
# [3] = system: LTP in hippocampal slices of APP/PS1 mice; test: Long-term potentiation in hippocampal slices, compound through the bath perfusion; details: 50 nM bath perfusion
# [4] = Acute toxicity study with histology; format: in vivo; details: 120 or 240 mg/kg, i.p.
# Description: Brain, muscle, kidney, and liver were harvested from each mouse, and tissue from each organ was examined histologically by a board-certified pathologist for signs of toxicity.
# [5] = system: LTP in hippocampal slices of APP/PS1 mice; test: Long-term potentiation in slices after 3 weeks daily i.p. treatment and 9-12 weeks without treatment; format: in vivo; details: 3 mg/kg/day i.p. for 3 weeks from 3 months of age, treatment stopped 9-12 weeks prior to testing
# Procedure: Transverse hippocampal slices (400 μm) were cut with a tissue chopper (EMS, PA) and maintained in an interface chamber at 29° C. for 90 min prior to recording, as described in Vitolo et al, Proc. Natl. Acad. Sci. USA 2002, 13217-13221, herein incorporated by reference in its entirety. The extracellular bath solution consisted of 124.0 mM NaCl, 4.4 mM KCl, 1.0 mM Na2HPO4, 25.0 mM NaHCO3, 2.0 mM CaCl2, 2.0 mM MgSO4, and 10.0 mM glucose, continuously aerated with 95% O2/5% CO2 to a final pH of 7.4. Field extracellular postsynaptic responses (fEPSPs) were recorded by placing the stimulating and recording electrodes in CA1 stratum radiatum. […] Basal synaptic transmission was first assessed by plotting the stimulus voltages (V) against slopes of fEPSP to generate input-output relations. A 20-30 min baseline was first recorded every minute at an intensity that evoked a response at approximately 35% of the maximum evoked response. […] Responses were measured as fEPSP slopes expressed as percentage of baseline.
# Slices from transgenic mice treated with the compound had 226.23%±6.72 potentiation compared to 164.12%±10.37 in slices from vehicle-treated transgenic mice (FIG. 3). Residual potentiation recorded during the last 5 minutes of a 2 hr recording following tetanic stimulation of the Schaffer collateral fibers at the CA3-CA1 connection.
# APP/PS1 mice [6] = test: Contextual fear conditioning (fear memory); format: in vivo
# Procedure: Fear conditioning was assessed as described in B. Gong, O. V. Vitolo, F. Trinchese, S. Liu, M. Shelanski, O. Arancio, Persistent improvement in synaptic and cognitive functions in an Alzheimer mouse model after rolipram treatment, J. Clin. Invest. 114 (2004) 1624-1634; F. Trinchese, S. Liu, F. Battaglia, S. Walter, P. M. Mathews, O. Arancio, Progressive age-related development of Alzheimer-like pathology in APP/PS1 mice, Ann. Neurol. 55 (2004) 801-814; and B. Gong, Z. Cao, P. Zheng, O. V. Vitolo, S. Liu, A. Staniszewski, D. Moolman, H. Zhang, M. Shelanski, O. Arancio, Ubiquitin hydrolase Uch-L1 rescues beta-amyloid-induced decreases in synaptic function and contextual memory, Cell 126 (2006) 775-788; each herein incorporated by reference in its entirety. […] Freezing behavior, defined as the absence of movements except for respiratory excursions, was scored using Freezeview software (Med Associates, St. Albans, Vt.). Contextual fear learning was evaluated 24 hrs after training by measuring freezing responses for 5 min in the same chamber where the mice were trained. Cued fear learning was evaluated 24 hrs after contextual testing. The mice were placed in a novel context for 2 min (pre-CS test), after which they were given a CS for 3 min (CS test), and freezing behavior was measured during the first 30 sec that mimic the CS-US conditioning and the remaining 2.5 min. […]
# APP/PS1 mice [7] = test: 2-day radial arm water maze (reference memory); format: in vivo
# Procedure: The radial arm water maze task, a hybrid of the classic Morris Water Maze and the radial arm land maze, was performed as described in J. Alamed, D. M. Wilcock, D. M. Diamond, M. N. Gordon, D. Morgan, Two-day radial-arm water maze learning and memory task; robust resolution of amyloid-related memory deficits in transgenic mice, Nat. Prot. 1 (2006) 1671-1679, herein incorporated by reference in its entirety. The mouse had to swim in 6 alleys (arms) radiating from a central area until it found a hidden (submerged) platform at the end of one of the arms, based on visual cues placed in the room. The first day of the protocol was a training day on which mice were trained to identify the platform location by alternating between a visible and a hidden platform in a goal arm. The final 3 trials on that day and all 15 trials on day 2 used a hidden escape platform to force mice to use spatial cues to identify the location of the goal arm. […] The number of incorrect arm entries (entries to arms with no platform) was counted. […] Failure to select an arm after 15 sec was counted as an error and the mouse was returned to the start arm. […] For data analysis, averages for each mouse were calculated using blocks of 3 trials. […]
# [8] = Pharmacokinetic study, brain and plasma; format: in vivo, C57B16 mice; details: 25 mg/kg i.p., mice; for half-life: read-out: t½ (elimination half-life) (converted)
# [9] = 3-4 month old APP/PS1 mice, 3 mg/kg i.p. for 3 weeks
# [10] = APP/PS1 mice, 3 mg/kg/day i.p. for 3 weeks at 3-4 months, treatment stopped 9-12 weeks, examined at 6-7 months
structure (smiles),measurement,setting,value
CCCc1nn(C)c2c(=O)[nH]c(-c3cc(S(=O)(=O)N4CCN(C)CC4)ccc3OCC)nc12 [sildenafil],effects on synaptic and cognitive abnormalities,APP/PS1 mice [1],prolonged beneficial effects
[2H]C([2H])(Nc1c2c(nc3ccc(C#N)cc13)CCN(C(C)=O)C2)c1ccc(OC)c(Cl)c1 [U],number of metabolites formed,[2],1
"COc1ccc(CNc2c3c(nc4ccc(C#N)cc24)CCN(C(C)=O)C3)cc1Cl [Compound H, 2-acetyl-10-[(3-chloro-4-methoxybenzyl)amino]-1,2,3,4-tetrahydrobenzo[b][1,6]naphthyridine-8-carbonitrile]",effect on potentiation in WT slices,[3],no effect
same,"brain sections, CD45 immunostain",[4],no signs of inflammation
same,"brain sections, GFAP immunostain",[4],no signs of gliosis
same,"brain sections, H&E",[4],did not show any signs of toxicity
same,"brain sections, LFB-PAS stain",[4],no signs of demyelination
same,"kidney sections, H&E staining",[4],no toxicity
same,"kidney sections, PAS staining",[4],did not show any abnormalities in the glomerular basement membrane
same,"kidney sections, trichrome staining",[4],no fibrosis
same,"liver sections, H&E staining",[4],did not show any signs of toxicity
same,"liver sections, trichrome stain",[4],no fibrosis or cirrhotic liver disease
same,"muscle sections, H&E",[4],no signs of toxicity
same,"muscle sections, trichrome stain",[4],no muscle fibrosis
same,neurotoxicity in the brain,[4],no signs of neurotoxicity
same,"residual potentiation (fEPSP slope, percentage of baseline)",[5],226.23%±6.72
same,"freezing, contextual fear memory 24 hrs after shock",APP/PS1 mice [6]; [9],~30%
same,"freezing, contextual memory",APP/PS1 mice [6]; [10],~40%
same,errors in the last trial of the 2-day RAWM test,APP/PS1 mice [7]; [9],1 to 2 errors
same,errors in the 2-day RAWM test,APP/PS1 mice [7]; [10],~1 error
same,t½ (elimination half-life),[8]; Brain,39 min
same,t½ (elimination half-life),[8]; Plasma,64.2 min
same,Cmax,"[8]; male, C57B16, mouse, ip, Brain",492 ng/g
same,half-life,"[8]; male, C57B16, mouse, ip, Brain",39 min
same,half-life,"[8]; male, C57B16, mouse, ip, Plasma",64.2 min

# Reference: patent US10899756B2, “Phosphodiesterase inhibitors and uses thereof” (The Trustees of Columbia University in the City of New York, priority 2013, dated 2021)
